Source: patent US7534809B2, “Phospho-indoles as HIV inhibitors” (priority 2004, dated 2009)
Where two headings read alike, the source gives them in different places.

Legend:
[1] = test system: HIV BH-10 WT; assay: Cell-based assay using BH-10 cells, wild type
[2] = test system: HIV mutant strain Y181C; assay: Cell-based assay using BH-10 cells, Y181C mutant
Protocol: (§1) In a typical embodiment, the NNRTIs display an EC50 in a mutant HIV strain of less than approximately 5, 2.5, 1 or 0.1 μM concentration. The degree of cross-resistance against a drug resistant strain of HIV is measured by assessing the EC50 of the desired oxo-pyrimidine compound in the target mutated, i.e., drug resistant, virus.
(§2) The degree of cross-resistance against a drug resistant strain of HIV can easily be measured by assessing the EC50 of the desired indole in the target mutated i.e., drug resistant, virus.

[3] = test system: HIV mutant strain K103N/Y181C; assay: Cell-based assay using BH-10 cells, K103N/Y181C mutant
Protocol: as §1, §2

[4] = Human immunodeficiency virus 1, read-out: EC50 WT///B, BH-10 cells, wild type
[5] = Human immunodeficiency virus 1, read-out: EC50 Y181C, BH-10 cells, Y181C mutant
[6] = Human immunodeficiency virus 1, read-out: EC50 K103N/Y181C, BH-10 cells, K103N/Y181C mutant
[7] = BH-10 cells, wild type, read-out: EC50 WT///B
[8] = BH-10 cells, Y181C mutant, read-out: EC50 Y181C
[9] = BH-10 cells, K103N/Y181C mutant, read-out: EC50 K103N/Y181C
[10] = read-out: EC50 K103N/Y181C, BH-10 cells, K103N/Y181C mutant

Row | SMILES | EC50 [1, 4] [nM] | EC50 [2, 5] [nM] | EC50 [3, 6] [nM] | EC50 [1, 7] [nM] | EC50 [2, 8] [nM] | EC50 [3, 9] [nM] | EC50 ([1]; read-out: EC50 WT///B, BH-10 cells, wild type) [nM] | EC50 [3, 10] [nM]
1 | COP(=O)(c1cc(F)cc(Cl)c1)c1c(C(N)=O)[nH]c2ccc(Cl)cc12 (centres unmarked) [Compound 7v] | 0.8 | 14.9 | 2.3 | – | – | – | – | –
2 | COP(=O)(c1cc(C)cc(C)c1)c1c(C(=O)NCc2ccncc2)[nH]c2ccc(Cl)c(F)c12 (centres unmarked) [Compound 18r] | 3.8 | 16.5 | 3.6 | – | – | – | – | –
3 | CCOP(=O)(c1cccc(C(F)(F)F)c1)c1c(C(N)=O)[nH]c2ccc(Cl)cc12 (centres unmarked) [Compound 6f] | 6.7 | – | 498 | – | – | – | – | –
4 | COP(=O)(c1cc(C)cc(C)c1)c1c(C(=O)NCc2ccc[n+]([O-])c2)[nH]c2ccc(Cl)c(F)c12 (centres unmarked) [Compound 22j] | – | – | – | 6.8 | 9.9 | 6 | – | –
5 | COP(=O)(c1cc(C)cc(C)c1)c1c(C(=O)NCCc2cc[n+]([O-])cc2)[nH]c2ccc(Cl)cc12 (centres unmarked) [Compound 22c] | 2.8 | 10.1 | 26.8 | – | – | – | – | –
6 | COP(=O)(c1cc(C)cc(C)c1)c1c(C(=O)NCc2cc[n+]([O-])cc2F)[nH]c2ccc(Cl)cc12 (centres unmarked) [Compound 22d] | 2.9 | 1.5 | 6.7 | – | – | – | – | –
7 | COP(=O)(c1cccc(C)c1)c1c(C(N)=O)[nH]c2ccc(Cl)cc12 (centres unmarked) [Compound 7ac] | – | – | – | 1.3 | 9.6 | 5.5 | – | –
8 | COP(=O)(c1cccc2ccccc12)c1c(C(N)=O)[nH]c2ccc(Cl)cc12 (centres unmarked) [Compound 7t] | 0.6 | 5.7 | 2.6 | – | – | – | – | –
9 | COP(=O)(c1cc(C)cc(C)c1)c1c(C(N)=O)[nH]c2ccc(Cl)c(F)c12 (centres unmarked) [Compound 7z] | 2.1 | 8.5 | 2.2 | – | – | – | – | –
10 | CCOP(=O)(c1cccc(C#N)c1)c1c(C(N)=O)[nH]c2ccc(Cl)cc12 (centres unmarked) [Compound 6g] | 9.5 | – | 195 | – | – | – | – | –
11 | COP(=O)(c1cc(F)cc(F)c1)c1c(C(=O)NCc2cc[n+]([O-])cc2)[nH]c2ccc(Cl)cc12 (centres unmarked) [Compound 22a] | 3.1 | 52.4 | 11.3 | – | – | – | – | –
12 | COP(=O)(c1ccccc1Cl)c1c(C(N)=O)[nH]c2ccc(Cl)cc12 (centres unmarked) [Compound 7ao] | 0.4 | 2 | 1.4 | – | – | – | – | –
13 | COP(=S)(c1ccccc1)c1c(C(N)=O)[nH]c2ccc(Cl)cc12 (centres unmarked) [Compound 25b] | 0.4 | 41.4 | 89.9 | – | – | – | – | –
14 | COP(=O)(c1cc(F)cc(C#N)c1)c1c(C(N)=O)[nH]c2ccc(Cl)cc12 (centres unmarked) [Compound 7at] | – | – | – | 5.7 | 22.1 | 10.3 | – | –
15 | COP(=O)(c1cc(F)cc(F)c1)c1c(C(=O)NCc2ccncc2)[nH]c2ccc(Cl)cc12 (centres unmarked) [Compound 18e] | 3.5 | 14.8 | 12 | – | – | – | – | –
16 | COP(=O)(c1ccccc1)c1c(C(=O)NCN2CCOCC2)[nH]c2ccc(Cl)cc12 (centres unmarked) [Compound 18aac] | 0.5 | 10.1 | 14 | – | – | – | – | –
17 | CCCc1cccc(P(=O)(OC)c2c(C(N)=O)[nH]c3ccc(Cl)cc23)c1 (centres unmarked) [Compound 7x] | 3 | 13.8 | 8.7 | – | – | – | – | –
18 | COP(=O)(c1cc(C)cc(C)c1)c1c(C(=O)NCCc2ccncc2)[nH]c2ccc(Cl)cc12 (centres unmarked) [Compound 18g] | 11.6 | 30.6 | 9.8 | – | – | – | – | –
19 | COP(=O)(c1cc(C)cc(C)c1)c1c(C(=O)NCc2cnc[n+]([O-])c2)[nH]c2ccc(Cl)cc12 (centres unmarked) [Compound 22g] | 2.1 | 10.7 | 3 | – | – | – | – | –
20 | COP(=O)(c1cc(C)cc(F)c1)c1c(C(=O)NCc2ccncc2)[nH]c2ccc(Cl)cc12 (centres unmarked) [Compound 18d] | 2.3 | 9.4 | 3.7 | – | – | – | – | –
21 | CCc1cccc(P(=O)(OC)c2c(C(=O)NCc3ccncc3)[nH]c3ccc(Cl)cc23)c1 (centres unmarked) [Compound 18ap] | 5.8 | 3.7 | 5.8 | – | – | – | – | –
22 | CCc1ccccc1P(=O)(OC)c1c(C(N)=O)[nH]c2ccc(Cl)cc12 (centres unmarked) [Compound 7an] | 2.9 | 50.5 | 1.3 | – | – | – | – | –
23 | COP(=O)(c1ccccc1C)c1c(C(N)=O)[nH]c2ccc(Cl)cc12 (centres unmarked) [Compound 7ad] | – | – | – | 1.3 | 32 | 4.7 | – | –
24 | COP(=O)(c1cc(C)cc(C)c1)c1c(C(=O)NCc2ccncn2)[nH]c2ccc(Cl)cc12 (centres unmarked) [Compound 18l] | 1.7 | 2.5 | 2.2 | – | – | – | – | –
25 | COP(=O)(c1cc(C)cc(C)c1)c1c(C(=O)NCc2ccc(Br)cc2)[nH]c2ccc(Cl)cc12 (centres unmarked) [Compound 18k] | 39.3 | 102 | 50.4 | – | – | – | – | –
26 | COP(=O)(c1cccc(Cl)c1)c1c(C(N)=O)[nH]c2ccc(Cl)cc12 (centres unmarked) [Compound 7c] | 0.4 | 8.7 | 2.6 | – | – | – | – | –

Row | SMILES | EC50 [1, 4] [nM] | EC50 [2, 5] [nM] | EC50 [3, 6] [nM] | EC50 [1, 7] [nM] | EC50 [2, 8] [nM] | EC50 [3, 9] [nM] | EC50 ([1]; read-out: EC50 WT///B, BH-10 cells, wild type) [nM] | EC50 [3, 10] [nM]
27 | COP(=O)(c1cc(C)cc(C)c1)c1c(C(=O)NCc2cc[n+]([O-])cc2)[nH]c2ccc(Cl)cc12 (centres unmarked) [Compound 22n] | 2 | 8.8 | 4.5 | – | – | – | – | –
28 | COP(=O)(CC=C(C)C)c1c(C(N)=O)[nH]c2ccc(Cl)cc12 (centres unmarked) [Compound 57b] | 0.8 | 13.1 | 174 | – | – | – | – | –
29 | CCOP(=O)(c1cccc(C(C)C)c1)c1c(C(N)=O)[nH]c2ccc(Cl)cc12 (centres unmarked) [Compound 6i] | 1.2 | 9.1 | 3.5 | – | – | – | – | –
30 | CCc1cccc(P(=O)(OC)c2c(C(N)=O)[nH]c3ccc(Cl)cc23)c1 (centres unmarked) [Compound 7d] | 0.6 | 6.5 | 1.4 | – | – | – | – | –
31 | COP(=O)(c1cc(F)cc(F)c1)c1c(C(=O)NCc2ccc(C#N)cc2)[nH]c2ccc(Cl)cc12 (centres unmarked) [Compound 18q] | 3 | 35.7 | 54.2 | – | – | – | – | –
32 | COP(=O)(c1cc(C)cc(C#N)c1)c1c(C(=O)NCc2ccncc2)[nH]c2ccc(Cl)cc12 (centres unmarked) [Compound 18aaf] | 1.8 | 3.9 | 1.1 | – | – | – | – | –
33 | COP(=O)(c1cccc(/C=C/C#N)c1)c1c(C(N)=O)[nH]c2ccc(Cl)cc12 (centres unmarked) [Compound 33a] | 3.2 | 2 | 3.4 | – | – | – | – | –
34 | COP(=O)(c1cc(C)cc(C)c1)c1c(C(=O)NCc2c(F)cccc2F)[nH]c2ccc(Cl)cc12 (centres unmarked) [Compound 18aah] | – | – | – | 7 | 22.8 | 16.9 | – | –
35 | COP(=O)(c1cc(C)cc(C)c1)c1c(C(N)=O)[nH]c2ccc(Cl)cc12 (centres unmarked) [Compound 7a] | 0.2 | 1.2 | 1 | – | – | – | – | –
36 | COP(=O)(c1cc(C)cc(C)c1)c1c(C(=O)NCc2ccncc2)[nH]c2ccc(Cl)cc12 (centres unmarked) [Compound 18ax] | 3 | 7.2 | 2.3 | – | – | – | – | –
37 | COP(=O)(c1ccccc1)c1c(C(=O)N[C@H](C(N)=O)c2ccccc2)[nH]c2ccc(Cl)cc12 (some centres unmarked) [Compound 18aao] | 38.1 | 287 | 118 | – | – | – | – | –
38 | COP(=O)(c1cccc(C)c1)c1c(C(=O)NCc2ccco2)[nH]c2ccc(Cl)cc12 (centres unmarked) [Compound 18b] | 3.6 | 10.1 | 4 | – | – | – | – | –
39 | COc1cccc(P(=O)(OC)c2c(C(=O)NCc3ccncc3)[nH]c3ccc(Cl)cc23)c1 (centres unmarked) [Compound 18av] | 0.7 | – | 2.4 | – | – | – | 0.8 | 1.4
40 | COc1ccccc1P(=O)(OC)c1c(C(N)=O)[nH]c2ccc(Cl)cc12 (centres unmarked) [Compound 7n] | – | – | – | 1.7 | 66 | 1.5 | – | –
41 | COP(=O)(c1cc(F)cc(F)c1)c1c(C(=O)NCc2ccccc2F)[nH]c2ccc(Cl)cc12 (centres unmarked) [Compound 18aad] | 11 | 38.2 | 12.5 | – | – | – | – | –
42 | COP(=O)(c1cccc(C2CC2)c1)c1c(C(N)=O)[nH]c2ccc(Cl)cc12 (centres unmarked) [Compound 7aa] | 2.2 | 7 | 3.7 | – | – | – | – | –
43 | CCOP(=O)(c1cccc(C)c1)c1c(C(N)=O)[nH]c2ccc(Cl)cc12 (centres unmarked) [Compound 6ab] | 0.5 | 34.8 | 19.6 | – | – | – | – | –
44 | COP(=O)(c1cc(F)cc(F)c1)c1c(C(N)=O)[nH]c2ccc(Cl)cc12 (centres unmarked) [Compound 7aj] | 0.6 | 17.7 | 9.1 | – | – | – | – | –
45 | COP(=O)(c1ccccc1)c1c(C(N)=O)[nH]c2ncc(Cl)cc12 (centres unmarked) [Compound 7-Aza] | – | – | – | 14.7 | > 1250 | 193 | – | –
46 | COc1cccc(P(=O)(OC)c2c(C(N)=O)[nH]c3ccc(Cl)cc23)c1 (centres unmarked) [Compound 7l] | 0.6 | 38.5 | 21.8 | – | – | – | – | –
47 | CCOP(=O)(c1ccc(C)cc1)c1c(C(N)=O)[nH]c2ccc(Cl)cc12 (centres unmarked) [Compound 6w] | 7.2 | – | > 1250 | – | – | – | – | –
48 | CCOP(=O)(c1ccccc1C)c1c(C(N)=O)[nH]c2ccc(Cl)cc12 (centres unmarked) [Compound 6x] | – | – | – | 21.3 | – | 448 | – | –
49 | COP(=O)(c1c(C(N)=O)[nH]c2ccc(Cl)cc12)C1CCCCC1 (centres unmarked) [Compound 57a] | 1.7 | – | 162 | – | – | – | – | –
50 | CCOP(=O)(c1cccc(OC)c1)c1c(C(N)=O)[nH]c2ccc(Cl)cc12 (centres unmarked) [Compound 6m] | 2.3 | – | 66.4 | – | – | – | – | –
51 | CCOP(=O)(c1ccc(C)c(C)c1)c1c(C(N)=O)[nH]c2ccc(Cl)cc12 (centres unmarked) [Compound 6y] | – | – | – | 2.6 | – | > 1250 | – | –
52 | COP(=O)(c1cc(C)cc(C)c1)c1c(C(=O)NCc2ccc(F)cc2F)[nH]c2ccc(Cl)cc12 (centres unmarked) [Compound 18aaj] | – | – | 41.6 | – | – | – | – | 25.8
